Assay results published in patent US7498406B2, “Substantially cell membrane impermeable compound and use thereof” (priority 1999, dated 2009).

Experiments:
BCE = assay: Viability of cultured cells, 72 hr; format: cell-based, bovine
Description: FIG. 18. Inhibition of proliferation and reduction in viability of BCE cells by GSAO. 15,000 (part A and B) or 50,000 (part C and D) BCE cells per well were seeded into gelatinised 24-well culture plates and allowed to attach for 24 hr (part A, B and D) or 72 hr (part C). The media was then replaced with DMEM containing 5% BCS and 0 to 1 mM GSAO or GSAA and either 1 ng per mL FGF-2 (part A) or 10 ng per mL VEGF (part B). In part D, the media was replaced with DMEM containing 5% BCS and 1 ng per mL FGF-2 and either 10 μM GSAO or GSAA. In part C, the media was replaced with DMEM containing 5% BCS and 0 to 1 mM GSAO or GSAA. Cells were cultured for 72 hr in parts A, B and C or for discrete times up to 48 hr in part D and then dispersed and counted. The dotted line in parts A, B and C indicate the cell number in control wells containing DMEM and 5% BCS which represented no to limited proliferation. The dotted line in part D represents no change in cell number over the 48 hr. The data points and errors represent the mean and range of duplicate wells.
BCE (Folkman et al. 1979), BAE, BxPC-3 (ATCC, Bethesda, Md.), HT1080 (Jiang et al., 1999), 3T3 (ATCC, Bethesda, Md.) and BVSM (Hogg et al., 1997) cells were harvested and cultured as indicated. Cells (0.5 mL of 30,000 or 100,000 cells per mL) were seeded into gelatinized 24-well culture plates (Corning Costar, Corning, N.Y.) in Dulbecco's Modified Eagle's Medium (DMEM, JHR Bioscience, Lenexa, Kans.) containing 10% fetal calf serum (FCS, Intergen Comp., Purchase, N.Y.) and 1% Glutamine Pen-Strep (GPS, Irvine Scientific, Santa Ana, Va.) and allowed to attach for 24 hr in 10% CO2 at 37° C. […] Cells were cultured for 0 to 72 hr in 10% CO2 at 37° C. then dispersed in trypsin/EDTA (GibcoBRL, Granc Island, N.Y.), resuspended in Coulter balanced electrolyte solution and counted with a Z1 Coulter counter (Coulter Corp., Miami, Fla.) in all experiments there were two control wells containing DMEM with 1% GPS and either 5% BCS for BCE cells, 2% BCS for BAE and BVSM cells, or 2% FCS for BxPC-3, HT1080 and 3T3 cells. […]

BVSM = assay: Proliferation of cultured cells, 72 hr; format: cell-based, bovine; settings: 5% BCS, 0 to 1 mM
Description: FIG. 19. Effect of GSAO on proliferation of non-endothelial cells. 15,000 BxPC-3 (part A), HT1080 (part B), 3T3 (part C) or BVSM (part D) cells per well were seeded into gelatinised 24-well culture plates and allowed to attach for 24 hr. The media was then replaced with DMEM containing 0 to 1 mM GSAO or GSAA and either 5% BCS (part D) or 5% FCS (parts A, B and C). Cells were cultured for 72 hr and then dispersed and counted. The dotted lines indicate the cell number in control wells containing DMEM and 2% BCS (part D) or 2% FCS (parts A, B and C) which represented no to limited proliferation. The data points and errors represent the mean and range of duplicate wells.
BCE (Folkman et al. 1979), BAE, BxPC-3 (ATCC, Bethesda, Md.), HT1080 (Jiang et al., 1999), 3T3 (ATCC, Bethesda, Md.) and BVSM (Hogg et al., 1997) cells were harvested and cultured as indicated. […] Cells were cultured for 0 to 72 hr in 10% CO2 at 37° C. then dispersed in trypsin/EDTA (GibcoBRL, Granc Island, N.Y.), resuspended in Coulter balanced electrolyte solution and counted with a Z1 Coulter counter (Coulter Corp., Miami, Fla.) in all experiments there were two control wells containing DMEM with 1% GPS and either 5% BCS for BCE cells, 2% BCS for BAE and BVSM cells, or 2% FCS for BxPC-3, HT1080 and 3T3 cells. […]

BxPC-3 tumours = assay: Tumour growth, continuous intraperitoneal administration by micro-osmotic pumps; format: in vivo, SCID mice; settings: 10 mg per kg per day
Description: FIG. 27. Inhibition of human pancreatic carcinoma tumour growth by continuous intraperitoneal administration of GSAO. BxPC-3 tumours were established in the proximal midline of female 7 to 9 week old SCID mice. Mice bearing ˜0.1 g tumours were implanted with 14 day alzet model 1002 micro-osmotic pumps (ALZA Corporation, Palo Alto, Calif.) in the peritoneal cavity. The pumps contained 45 mg per mL GSAA or GSAO and delivered 10 mg per kg per day. The pumps were replaced after 14 days. Pump duration is indicated by the shaded bar. Tumour volume and animal weight was measured every 3 days.
SCID mice bearing subcutaneous human BxPC-3-pancreatic carcinoma tumours were implanted with 14 day micro-osmotic pumps in the peritoneal cavity. The pumps delivered 10 mg per kg per day GSAA or GSAO and were replaced after 14 days with fresh pumps. The rate of growth of the BxPC-3 tumours was inhibited in the mice receiving GSAO (FIG. 27). […] When the second pump was exhausted one of the halted tumours began to grow at about the same rate as the GSAA-treated tumour while the other tumour had resolved completely.

Compound: N[C@@H](CCC(=O)N[C@@H](CSCC(=O)Nc1ccc([As](=O)(O)O)cc1)C(=O)NCC(=O)O)C(=O)O [GSAA, 4-(N-(S-glutathionylacetyl)amino)phenylarsonic acid, reference compound]
- effect on viability of BCE cells (BCE; 0 to 1 mM): no significant effect on viability
- Proliferation IC50 (BVSM): no significant effect
- rate of BxPC-3 tumour growth (BxPC-3 tumours): no significant effect

Compound: NC(CCC(=O)NC(CSCC(=O)Nc1ccc([As]=O)cc1)C(=O)NCC(=O)O)C(=O)O (centres unmarked) [GSAO, 4-(N-(S-glutathionylacetyl)amino)-phenylarsenoxide]
- time dependence of the decrease in viability (BCE; 10 μM, 1 ng per mL FGF-2, up to 48 hr): no decrease in viability after 8 hours
- IC50 (BCE; 5% BCS + 10 ng/mL VEGF, >90% confluent, 72 hr): ~3000 nM
- Proliferation IC50 (BVSM): did not affect the proliferation
- rate of BxPC-3 tumour growth (BxPC-3 tumours): halted completely in two other mice
- slowing of tumour growth in one mouse (BxPC-3 tumours): 50%
